Reference: ChEMBL document CHEMBL1132842, “Novel antifungals based on 4-substituted imidazole: solid-phase synthesis of substituted aryl sulfonamides towards optimization of in vitro activity” (Bioorg Med Chem Lett, 2000)
≈ marks a conversion by molar mass, not a printed value.

Experiments:
[1] = test system: Saccharomyces cerevisiae; assay: Concentration required to inhibit 65% growth of selected sets of Yeasts; format: functional
[2] = test system: mold; assay: Concentration required to inhibit growth of pathogenic molds; format: functional
[3] = test system: Nakaseomyces glabratus; assay: Minimum concentration required to inhibit the growth of Candida glabrata; format: functional
[4] = test system: Pichia kudriavzevii; assay: Minimum concentration required to inhibit the growth of Candida krusei; format: functional
[5] = test system: Cryptococcus neoformans; assay: Minimum concentration required to inhibit the growth of Cryptococcus neoformans; format: functional
[6] = test system: Candida parapsilosis; assay: Minimum concentration required to inhibit the growth of Candida parapsilosis; format: functional; conditions: Lodderomyces parapsilosis
[7] = test system: Trichophyton benhamiae; assay: Minimum concentration required to inhibit the growth of Trichophyton mentagrophytes; format: functional, Arthroderma benhamiae
[8] = test system: Sporothrix schenckii; assay: Minimum concentration required to inhibit the growth of Sporothrix schenck ii; format: functional
[9] = test system: Microsporum canis; assay: Minimum concentration required to inhibit the growth of […] canis; format: functional
[10] = test system: Candida albicans; assay: Minimum concentration required to inhibit the growth of Candida albicans 2; format: functional
[11] = test system: Trichophyton rubrum; assay: Minimum concentration required to inhibit the growth of Trichophyton rubrum; format: functional
[12] = test system: Candida albicans; assay: Minimum concentration required to inhibit the growth of Candida albicans 1; format: functional
[13] = test system: Kluyveromyces marxianus; assay: Minimum concentration required to inhibit the growth of Candida kefyr; format: functional
[14] = test system: Candida tropicalis; assay: Minimum concentration required to inhibit the growth of Candida tropicalis; format: functional
[15] = test system: Aspergillus fumigatus; assay: Minimum concentration required to inhibit the growth of Aspergillus fumigatus; format: functional
[16] = test system: Saccharomyces cerevisiae; assay: Concentration required to inhibit 65% growth of Yeast strains; format: functional
[17] = test system: Candida albicans; assay: Minimum concentration required to inhibit the growth of Candida albicans 4; format: functional

SMILES: CC(=O)Nc1cccc(-c2ccc(S(=O)(=O)N(Cc3c[nH]cn3)CC3CCCCC3)cc2)c1
- pLADY [1]: 4.1
- pLADM [2]: 4

SMILES: C[C@@H](c1ncncc1F)[C@](O)(Cn1cncn1)c1ccc(F)cc1F [VORICONAZOLE]
- MIC [3]: 10 µM (≈ 3.49 µg/mL)
- MIC [4]: 10 µM (≈ 3.49 µg/mL)
- MIC [5]: 1 µM (≈ 0.349 µg/mL)
- MIC [6]: ≤ 0.1 µM
- MIC [7]: ≤ 0.1 µM
- MIC [8]: > 10 µM
- MIC [9]: 1 µM (≈ 0.349 µg/mL)
- MIC [10]: ≤ 0.1 µM
- MIC [11]: ≤ 0.1 µM
- MIC [12]: > 10 µM
- MIC [13]: ≤ 0.1 µM
- MIC [14]: 1 µM (≈ 0.349 µg/mL)
- MIC [15]: 1 µM (≈ 0.349 µg/mL)

SMILES: CC(C)C(C(C)C)N(Cc1c[nH]cn1)S(=O)(=O)c1ccc(N2CCN(c3ccc(F)cc3)CC2)cc1
- pLADY [1]: 6.4
- pLADM [2]: 4

SMILES: O=S(=O)(c1ccc(N2CCN(c3ccc(F)cc3)CC2)cc1)N(Cc1c[nH]cn1)CC1CCCCC1
- MIC [3]: 10 µM (≈ 5.12 µg/mL)
- MIC [4]: 10 µM (≈ 5.12 µg/mL)
- pLADY [16]: 6.9
- MIC [5]: 1 µM (≈ 0.512 µg/mL)
- MIC [6]: ≤ 0.1 µM
- MIC [7]: > 10 µM
- MIC [8]: > 10 µM
- MIC [9]: 10 µM (≈ 5.12 µg/mL)
- MIC [10]: ≤ 0.1 µM
- MIC [11]: 10 µM (≈ 5.12 µg/mL)
- MIC [12]: > 10 µM
- MIC [13]: ≤ 0.1 µM
- MIC [17]: ≤ 0.1 µM
- pLADM [2]: 4
- MIC [14]: ≤ 0.1 µM
- MIC [15]: > 10 µM

SMILES: CN1CCN(c2ccc(S(=O)(=O)N(Cc3c[nH]cn3)CC3CCCCC3)cc2)CC1
- pLADY [1]: 4.6
- pLADM [2]: 4

SMILES: O=S(=O)(c1ccc(-c2ccc(Cl)cc2)cc1)N(Cc1c[nH]cn1)CC1CCCCC1
- pLADY [1]: 6.3
- pLADM [2]: 4.4

SMILES: CC(C)C(C(C)C)N(Cc1c[nH]cn1)S(=O)(=O)c1ccc(-c2ccccc2)cc1
- pLADY [1]: 6.6
- pLADM [2]: 5.2

SMILES: Cc1ccc(N2CCN(c3ccc(S(=O)(=O)N(Cc4c[nH]cn4)CC4CCCCC4)cc3)CC2)cc1
- pLADY [1]: 6.3
- pLADM [2]: 4

SMILES: CC(C)C(C(C)C)N(Cc1c[nH]cn1)S(=O)(=O)c1ccc(-c2ccc(F)cc2)cc1
- MIC [3]: 1 µM (≈ 0.43 µg/mL)
- MIC [4]: 1 µM (≈ 0.43 µg/mL)
- pLADY [16]: 6.8
- MIC [5]: ≤ 0.1 µM
- MIC [6]: ≤ 0.1 µM
- MIC [7]: 10 µM (≈ 4.3 µg/mL)
- MIC [8]: > 10 µM
- MIC [9]: 1 µM (≈ 0.43 µg/mL)
- MIC [10]: ≤ 0.1 µM
- MIC [11]: 1 µM (≈ 0.43 µg/mL)
- MIC [12]: > 10 µM
- MIC [13]: ≤ 0.1 µM
- MIC [17]: 1 µM (≈ 0.43 µg/mL)
- pLADM [2]: 5.2
- MIC [14]: ≤ 0.1 µM
- MIC [15]: 10 µM (≈ 4.3 µg/mL)

SMILES: O=S(=O)(c1ccc(-c2ccc(F)cc2)cc1)N(Cc1c[nH]cn1)C1CCCCC1
- pLADY [1]: 5.8
- pLADM [2]: 4.4

SMILES: CN(c1ccc(S(=O)(=O)N(Cc2c[nH]cn2)CC2CCCCC2)cc1)C1CCCCC1
- pLADY [1]: 5.5
- pLADM [2]: 4

SMILES: CC(C)C(C(C)C)N(Cc1c[nH]cn1)S(=O)(=O)c1ccc(-c2ccc(Cl)cc2)cc1
- pLADY [1]: 6.4
- pLADM [2]: 5.4

SMILES: O=S(=O)(c1ccc(NCCc2ccc(Cl)cc2Cl)cc1)N(Cc1c[nH]cn1)CC1CCCCC1
- pLADY [1]: 5.4
- pLADM [2]: 4

SMILES: O=S(=O)(c1ccc(CNCCc2ccc(Cl)cc2Cl)cc1)N(CCc1ccc(F)cc1)Cc1c[nH]cn1
- pLADY [1]: 6.1
- pLADM [2]: 4.4

SMILES: O=S(=O)(c1ccc(N2CCCCC2)cc1)N(CCc1ccccc1F)Cc1c[nH]cn1
- pLADY [1]: 5.9
- pLADM [2]: 4.2

SMILES: COc1ccc(-c2ccc(S(=O)(=O)N(Cc3c[nH]cn3)C(C(C)C)C(C)C)cc2)cc1
- pLADY [1]: 6.4
- pLADM [2]: 5

SMILES: O=S(=O)(c1ccc(N2CCN(c3cccc(C(F)(F)F)c3)CC2)cc1)N(Cc1c[nH]cn1)CC1CCCCC1
- pLADY [1]: 6.3
- pLADM [2]: 4

SMILES: O=S(=O)(c1ccc(COc2ccc(F)cc2)cc1)N(Cc1c[nH]cn1)CC1CCCCC1
- pLADY [1]: 6.1
- pLADM [2]: 4.4

SMILES: O=S(=O)(c1ccc(N2CCN(c3ccc(F)cc3)CC2)cc1)N(CCc1ccccc1F)Cc1c[nH]cn1
- pLADY [1]: 6.8
- pLADM [2]: 4.4

SMILES: O=S(=O)(c1ccc(-c2ccc(F)cc2)cc1)N(Cc1c[nH]cn1)CC1CCCCC1
- pLADY [1]: 6.3
- pLADM [2]: 4.4

SMILES: O=S(=O)(c1ccc(N2CCN(c3ccccn3)CC2)cc1)N(Cc1c[nH]cn1)CC1CCCCC1
- pLADY [1]: 6.4
- pLADM [2]: 4

SMILES: O=S(=O)(c1ccc(-c2ccsc2)cc1)N(Cc1c[nH]cn1)CC1CCCCC1
- pLADY [1]: 6.1
- pLADM [2]: 4.4

SMILES: CCCCCCN(Cc1c[nH]cn1)S(=O)(=O)c1ccc(-c2ccc(F)cc2)cc1
- pLADY [1]: 5.9
- pLADM [2]: 4.8

SMILES: CCC(C)n1ncn(-c2ccc(N3CCN(c4ccc(OCC5COC(Cn6cncn6)(c6ccc(Cl)cc6Cl)O5)cc4)CC3)cc2)c1=O (stereo not given) [ITRACONAZOLE]
- MIC [3]: 1 µM (≈ 0.706 µg/mL)
- MIC [4]: 1 µM (≈ 0.706 µg/mL)
- MIC [5]: ≤ 0.1 µM
- MIC [6]: ≤ 0.1 µM
- MIC [7]: 0.1 µM (≈ 0.0706 µg/mL)
- MIC [8]: 10 µM (≈ 7.06 µg/mL)
- MIC [9]: ≤ 0.1 µM
- MIC [10]: ≤ 0.1 µM
- MIC [11]: ≤ 0.1 µM
- MIC [12]: > 10 µM
- MIC [13]: ≤ 0.1 µM
- MIC [17]: > 10 µM
- MIC [14]: 0.1 µM (≈ 0.0706 µg/mL)
- MIC [15]: 1 µM (≈ 0.706 µg/mL)

SMILES: O=S(=O)(c1ccc(N2CCOCC2)cc1)N(CCc1ccccc1F)Cc1c[nH]cn1
- pLADY [1]: 4.5
- pLADM [2]: 4

SMILES: CCCCOc1ccc(S(=O)(=O)N(Cc2c[nH]cn2)C(CC)C2CCCCC2)cc1 (stereo not given)
- MIC [3]: 1 µM (≈ 0.434 µg/mL)
- MIC [4]: 1 µM (≈ 0.434 µg/mL)
- MIC [5]: 1 µM (≈ 0.434 µg/mL)
- MIC [6]: ≤ 0.1 µM
- MIC [7]: 10 µM (≈ 4.34 µg/mL)
- MIC [8]: > 10 µM
- MIC [9]: 1 µM (≈ 0.434 µg/mL)
- MIC [10]: ≤ 0.1 µM
- MIC [11]: 1 µM (≈ 0.434 µg/mL)
- MIC [12]: > 10 µM
- MIC [13]: ≤ 0.1 µM
- MIC [17]: ≤ 0.1 µM
- MIC [14]: 1 µM (≈ 0.434 µg/mL)
- MIC [15]: > 10 µM

SMILES: O=S(=O)(c1ccc(N2CCN(c3ccccc3Cl)CC2)cc1)N(CCc1ccccc1F)Cc1c[nH]cn1
- pLADY [1]: 6
- pLADM [2]: 4.2

SMILES: O=S(=O)(c1ccc(CN2CCN(c3ccccn3)CC2)cc1)N(Cc1c[nH]cn1)CC1CCCCC1
- pLADY [1]: 6.4
- pLADM [2]: 4

SMILES: O=S(=O)(c1ccc(N2CCN(c3ccc(Cl)c(Cl)c3)CC2)cc1)N(CCc1ccccc1F)Cc1c[nH]cn1
- pLADY [1]: 5.8
- pLADM [2]: 4

SMILES: CCCCOc1ccc(S(=O)(=O)N(CCc2ccc(F)cc2)Cc2c[nH]cn2)cc1
- MIC [3]: 10 µM (≈ 4.32 µg/mL)
- MIC [4]: > 10 µM
- MIC [5]: 1 µM (≈ 0.432 µg/mL)
- MIC [6]: 1 µM (≈ 0.432 µg/mL)
- MIC [7]: > 10 µM
- MIC [8]: > 10 µM
- MIC [9]: 10 µM (≈ 4.32 µg/mL)
- MIC [10]: ≤ 0.1 µM
- MIC [11]: 1 µM (≈ 0.432 µg/mL)
- MIC [12]: > 10 µM
- MIC [13]: ≤ 0.1 µM
- MIC [17]: 10 µM (≈ 4.32 µg/mL)
- MIC [14]: ≤ 0.1 µM
- MIC [15]: > 10 µM

SMILES: COc1ccc(-c2ccc(S(=O)(=O)N(Cc3c[nH]cn3)CC3CCCCC3)cc2)cc1
- pLADY [1]: 6.3
- pLADM [2]: 4.4

SMILES: CCC(CC)Nc1ccc(S(=O)(=O)N(Cc2c[nH]cn2)C(C(C)C)C(C)C)cc1
- pLADY [1]: 6.5
- pLADM [2]: 4

SMILES: O=S(=O)(c1ccc(CNCCc2ccc(Cl)cc2Cl)cc1)N(Cc1c[nH]cn1)CC1CCCCC1
- MIC [3]: 10 µM (≈ 5.36 µg/mL)
- MIC [4]: 1 µM (≈ 0.536 µg/mL)
- pLADY [16]: 6.5
- MIC [5]: 1 µM (≈ 0.536 µg/mL)
- MIC [6]: < 0.1 µM
- MIC [7]: > 10 µM
- MIC [8]: > 10 µM
- MIC [9]: 10 µM (≈ 5.36 µg/mL)
- MIC [10]: ≤ 0.1 µM
- MIC [11]: 10 µM (≈ 5.36 µg/mL)
- MIC [12]: 10 µM (≈ 5.36 µg/mL)
- MIC [13]: ≤ 0.1 µM
- MIC [17]: 1 µM (≈ 0.536 µg/mL)
- pLADM [2]: 4.4
- MIC [14]: 1 µM (≈ 0.536 µg/mL)
- MIC [15]: > 10 µM
